From patent US9370506B2, “Modulators of aldehyde dehydrogenase and methods of use thereof” (The Board of Trustees of the Leland Stanford Junior …, priority 2008, dated 2016)
Changes are numbered by the printed parent chain.

What was measured:
Assay type in all cases: biochemical
[1] = target: T1, ALDH2 (Homo sapiens, UniProt P05091, E504K); test: Screening for ALDH2 agonists (NAD+ to NADH, optionally diaphorase/resazurin-coupled); conditions: increase of ALDH2 activity; 10 mM acetaldehyde as substrate
T1 sequence (P05091 18-517 E504K): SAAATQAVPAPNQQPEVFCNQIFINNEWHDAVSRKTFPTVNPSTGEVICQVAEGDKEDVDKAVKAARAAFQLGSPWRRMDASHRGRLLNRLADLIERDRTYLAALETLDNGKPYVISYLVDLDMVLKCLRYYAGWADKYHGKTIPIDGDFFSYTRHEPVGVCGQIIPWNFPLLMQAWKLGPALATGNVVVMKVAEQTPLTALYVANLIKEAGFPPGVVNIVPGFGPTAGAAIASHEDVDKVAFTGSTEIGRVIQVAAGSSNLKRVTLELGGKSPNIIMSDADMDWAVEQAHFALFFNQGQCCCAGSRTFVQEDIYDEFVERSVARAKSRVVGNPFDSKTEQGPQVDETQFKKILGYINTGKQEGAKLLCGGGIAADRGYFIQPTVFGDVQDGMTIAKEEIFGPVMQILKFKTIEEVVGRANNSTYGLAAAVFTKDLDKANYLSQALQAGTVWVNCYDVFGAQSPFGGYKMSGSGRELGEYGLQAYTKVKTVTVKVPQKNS
Procedure: Compounds were screened using a method as depicted schematically in FIG. 4. Essentially, the reaction is carried out at 25° C. in 0.1 NaPPi buffer, pH 9.5, 2.4 mM NAD^+ and 10 mM acetaldehyde as the substrate. Enzymatic activity is measured by a reductive reaction of NAD^+ to NADH at 340 nm. Alternatively, the production of NADH can be coupled with another enzymatic reaction that consumes NADH and that provides for a detectable signal. An example of such an enzymatic reaction is a diaphorase-based reaction, which reduces resazurin to its […] fluorescent compound resorufin.
For example, a 120 μl reaction mixture for ALDH enzymatic activity comprises the following components:
43 μl 150 mM sodium pyrophosphate (NaPPi) buffer, pH 9.0;
15 μl 80 mM acetaldehyde;
1 μl of resazurin (0.2 mg/ml in H2O);
1 μl of diaphorase (1 unit, e.g., from Clostridium kluyveri);
2 μl of variant ALDH2 (e.g., 2 μl of variant ALDH2 at (0.5-2 μg/μl); and
28 μl of a solution comprising an agent to be tested, which agent has been resuspended in an appropriate solvent (e.g., an aqueous solution, DMSO, and the like).
Approximately 65,000 compounds were screened. A number of compounds were identified that increase the activity of ALDH2.

[2] = target: T2, E488K ALDH1 mutant recombinant protein (Homo sapiens, UniProt P00352, E488K); test: High throughput screening against E488K ALDH1 mutant; conditions: octylaldehyde and phenylacetaldehdye as substrates
T2 sequence (P00352 1-501 E488K): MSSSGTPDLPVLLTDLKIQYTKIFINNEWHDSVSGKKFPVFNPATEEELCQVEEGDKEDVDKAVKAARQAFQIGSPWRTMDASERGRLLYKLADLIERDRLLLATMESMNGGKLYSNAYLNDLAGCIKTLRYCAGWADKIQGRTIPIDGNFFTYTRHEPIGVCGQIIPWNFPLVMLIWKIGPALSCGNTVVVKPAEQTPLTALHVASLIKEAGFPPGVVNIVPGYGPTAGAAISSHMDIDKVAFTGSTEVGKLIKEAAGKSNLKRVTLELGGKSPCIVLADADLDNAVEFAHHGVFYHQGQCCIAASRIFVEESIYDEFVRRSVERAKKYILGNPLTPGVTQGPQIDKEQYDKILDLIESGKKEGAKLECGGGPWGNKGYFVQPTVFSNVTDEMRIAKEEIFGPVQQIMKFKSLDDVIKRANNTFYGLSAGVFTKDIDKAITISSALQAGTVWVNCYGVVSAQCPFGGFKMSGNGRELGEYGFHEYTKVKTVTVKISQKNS
Description: The screening assays used octylaldehyde (an example of longer chain aliphatic aldehyde) and phenylacetaldehdye (an example of aromatic aldehyde), instead of acetaldehyde.

[3] = target: T3, ALDH2 isozyme (Homo sapiens, UniProt P05091); test: ALDH2 enzymatic activity, spectrophotometric NAD+ to NADH assay; conditions: acetaldehyde as substrate
T3 construct: made in house; host or cells: BL21 E. coli
T3 sequence (P05091 18-517): T1 sequence (P05091 18-517 E504K) with K487E
Procedure: Reagents for plant-derived compounds safrole, isosafrole, piperine, sesamin, capsaicin were purchased from Sigma-Aldrich Chemicals and dihydromethysticin was purchased from AvaChem. Scientific. Piperine related compounds, Alda-101 to Alda-112, were synthesized by standard organic chemistry. All testing compounds were dissolved in dimethyl-sulfoxide (DMSO) to obtain a stock solution of 20 mM. Different recombinant ALDH isozymes with a His-epitope tag at the N-terminus were constructed, cloned and expressed in BL21 E. coli host cells according published methods (Chen et al., 2008 Science 321:1493). The bacteria were subjected to 0.5 mM IPTG induction for protein expression at 30° C. Purification of the recombinant proteins by affinity nickel columns were carried out using a standard protocol according to manufacturer's instructions (Novagen, Wis., USA).
ALDH enzymatic activity was determined spectrophotometrically using purified recombinant protein (15 ug) in the reductive reaction of NAD^+ to NADH at λ340 nm (Rex et al., 1985, Alcohol Clin Exp Res 9: 147). All the assays in the presence of absence of a testing compound were carried out at 25° C. in […] pyrophosphate buffer, pH=9.5, 2.4 mM NAD+ and 10 mM acetaldehyde or phenylacetaldehyde as a substrate.

O=C(C1COc2cc(S(=O)(=O)NCc3ccccc3Cl)ccc2O1)N1CCCCCC1 (centres unmarked) [Alda-64, 2-(azepane-1-carbonyl)-N-(2-chloro-benzyl)-2,3-dihydro-benzo[1,4]dioxine-6-sulfonamide]
EC50 [1]: 2.2 µM

CCCCC(=O)Nc1cc(-c2ccc(C)cc2)no1 [Alda-57, pentanoic acid (3-p-tolyl-isoxazol-5-yl)-amide]
EC50 [1]: 1.4 µM

Cc1ccc(CNC(=O)Cn2c3ccccc3c3cn[nH]c(=O)c32)cc1 [Alda-71, N-(4-methyl-benzyl)-2-(1-oxo-1,2-dihydro-2,3,9-triaza-fluoren-9-yl)-acetamide]
EC50 [1]: 16.6 µM

Cc1ccc(-n2cc(-c3ccccc3)c3c(N4CCN(CCO)CC4)ncnc32)cc1Cl [Alda-73, 2-{4-[7-(3-chloro-4-methyl-phenyl)-5-phenyl-7H-pyrrolo[2,3-d]pyrimidin-4-yl]-piperazin-1-yl}-ethanol]
EC50 [1]: 3.55 µM

Cc1ccc(N2CC(c3nc(-c4ccncc4)no3)CC2=O)cc1F (centres unmarked) [Alda-70, 1-(3-fluoro-4-methyl-phenyl)-4-(3-pyridin-4-yl-[1,2,4]oxadiazol-5-yl)-pyrrolidin-2-one]
EC50 [1]: 5.57 µM

COc1ccccc1CNc1nccn(-c2ccc3c(c2)OCCO3)c1=O [Alda-63, 1-(2,3-dihydro-benzo[1,4]dioxin-6-yl)-3-(2-methoxy-benzylamino)-1H-pyrazin-2-one]
EC50 [1]: 12.4 µM

CCOC(=O)c1cc(-c2ccc(C)cc2)n(CCC(=O)N2CCN(c3ccccn3)CC2)c1C [Alda-56, 2-methyl-1-[3-oxo-3-(4-pyridin-2-yl-piperazin-1-yl)-propyl]-5-p-tolyl-1H-pyrrole-3-carboxylic acid ethyl ester]
EC50 [1]: 3.65 µM

Cc1cc(C)cc(NC(=O)CSC2=Nc3ccccc3C3=NC(C(C)C)C(=O)N23)c1 (centres unmarked) [Alda-65, N-(3,5-dimethyl-phenyl)-2-(2-isopropyl-3-oxo-2,3-dihydro-imidazo[1,2-c]quinazolin-5-ylsulfanyl)-acetamide]
EC50 [1]: 8.41 µM

CCn1cnc2c(=O)oc3ccc(S(=O)(=O)NCc4ccc5c(c4)OCO5)cc3c21 [Alda-54, 1-ethyl-4-oxo-1,4-dihydro-chromeno[3,4-d]imidazole-8-sulfonic acid (benzo[1,3]dioxol-5-ylmethyl)-amide]
EC50 [1]: 1.72 µM

Cc1ccc(CNC(=O)C(C)SC2=Nc3ccccc3C3=NC(C(C)C)C(=O)N23)cc1 (centres unmarked) [Alda-66, 2-(2-isopropyl-3-oxo-2,3-dihydro-imidazo[1,2-c]quinazolin-5-ylsulfanyl)-N-(4-methyl-benzyl)-propionamide]
EC50 [1]: 2.66 µM

Cc1ccc(CNS(=O)(=O)c2cc(-c3onc(C)c3C)ccc2C)cc1 [Alda-61, 5-(3,4-dimethyl-isoxazol-5-yl)-2-methyl-N-(4-methyl-benzyl)-benzene sulfonamide]
EC50 [1]: 6.44 µM

COc1ccc(C2C(C#N)=C(C)NC3=C2C(=O)CC(c2ccc(Cl)cc2)C3)cc1 (centres unmarked) [Alda-83, 7-(4-chloro-phenyl)-4-(4-methoxy-phenyl)-2-methyl-5-oxo-1,4,5,6,7,8-hexahydro-quinoline-3-carbonitrile]
identified as ALDH1 activator [2]: ALDH1 activators

O=C(NCc1ccc2c(c1)OCO2)c1cc(-n2cnnc2)ccc1Cl [Alda-53, N-benzo[1,3]dioxol-5-ylmethyl-2-chloro-5-[1,2,4]triazol-4-yl-benzamide]
EC50 [1]: 1.09 µM

C=CCn1c(C(C)NC(=O)c2ccccc2)nc2ccccc21 (centres unmarked) [Alda-81, N-[1-(1-allyl-1H-benzoimidazol-2-yl)-ethyl]-benzamide]
identified as ALDH1 activator [2]: ALDH1 activators

Cc1ccc(CNS(=O)(=O)c2cc(-c3cc(C)no3)ccc2C)cc1 [Alda-60, 2-methyl-N-(4-methyl-benzyl)-5-(3-methyl-isoxazol-5-yl)-benzene sulfonamide]
EC50 [1]: 4.96 µM

Cc1ccc(-n2ncc3c(N(CCO)Cc4ccccc4)ncnc32)cc1Cl [Alda-67, 2-{benzyl-[1-(3-chloro-4-methyl-phenyl)-1H-pyrazolo[3,4-d]pyrimidin-4-yl]-amino}-ethanol]
EC50 [1]: 3.42 µM

C=CCc1ccc2c(c1)OCO2 [safrole, 5-(2-propenyl)-1,3-benzodioxole]
effect on enzymatic activity of ALDH2 isozyme ([3]; 500 uM & 1000 uM, FIG. 17): Inhibitory effect
effect on enzymatic activity of ALDH2 isozyme, 15-minute kinetic measurements ([3]; 1000 uM, FIG. 18): inhibitory effect

O=C(Cn1c2ccccc2c2cn[nH]c(=O)c21)NCc1ccc2c(c1)OCO2 [Alda-72, N-benzo[1,3]dioxol-5-ylmethyl-2-(1-oxo-1,2-dihydro-2,3,9-triaza-fluoren-9-yl)-acetamide]
EC50 [1]: 2.92 µM

NC(=O)c1cc(S(=O)(=O)NCc2ccc3c(c2)OCO3)cs1 [Alda-59, 4-[(benzo[1,3]dioxol-5-ylmethyl)-sulfamoyl]-thiophene-2-carboxylic acid amide]
EC50 [1]: 4.6 µM

Cc1ccc(N2CC(c3nc(-c4cccnc4)no3)CC2=O)cc1Cl (centres unmarked) [Alda-69, 1-(3-chloro-4-methyl-phenyl)-4-(3-pyridin-3-yl-[1,2,4]oxadiazol-5-yl)-pyrrolidin-2-one]
EC50 [1]: 8.9 µM

COc1c(C(=O)NCc2ccc3c(c2)OCO3)ccc2ccccc12 [Alda-52, 1-methoxy-naphthalene-2-carboxylic acid (benzo[1,3]dioxol-5-ylmethyl)-amide]
EC50 [1]: 3 µM

COc1cccc(CNc2nccn(-c3ccc(C)c(C)c3)c2=O)c1 [Alda-62, 1-(3,4-dimethyl-phenyl)-3-(3-methoxy-benzylamino)-1H-pyrazin-2-one]
EC50 [1]: 14.7 µM
